The source of these data is US8383817B2, “Benztropine compounds and uses thereof” (The United States of America, as represented by the …, priority 2005, dated 2013).

Like-named read-outs stand apart in the source and are kept apart here.

Experiment [1] has as its target T1, DAT (Rattus norvegicus, UniProt P23977).
T1 construct: their brains removed to an ice-cooled dish for dissection of the caudate putamen; from tissue; host or cells: rat caudate putamen homogenate
Description: biochemical. The experiment is classed as binding.

Another experiment has as its target T2, DA uptake (Rattus norvegicus, UniProt P23977).
T2 construct: The synaptosomal tissue preparation was incubated in buffer in glass test tubes at 37° C; from tissue
Description: Dopamine Uptake Assay, [3H]dopamine in synaptosomal tissue preparation. The format is biochemical.

Experiment [2] has as its target T3, muscarinic M1 receptor (Rattus norvegicus, UniProt P08482).
T3 construct: Membranes from frozen rat brains excluding cerebellum were thawed; from tissue; host or cells: rat brain (excluding cerebellum) membranes
T3 sequence (P08482 1-460): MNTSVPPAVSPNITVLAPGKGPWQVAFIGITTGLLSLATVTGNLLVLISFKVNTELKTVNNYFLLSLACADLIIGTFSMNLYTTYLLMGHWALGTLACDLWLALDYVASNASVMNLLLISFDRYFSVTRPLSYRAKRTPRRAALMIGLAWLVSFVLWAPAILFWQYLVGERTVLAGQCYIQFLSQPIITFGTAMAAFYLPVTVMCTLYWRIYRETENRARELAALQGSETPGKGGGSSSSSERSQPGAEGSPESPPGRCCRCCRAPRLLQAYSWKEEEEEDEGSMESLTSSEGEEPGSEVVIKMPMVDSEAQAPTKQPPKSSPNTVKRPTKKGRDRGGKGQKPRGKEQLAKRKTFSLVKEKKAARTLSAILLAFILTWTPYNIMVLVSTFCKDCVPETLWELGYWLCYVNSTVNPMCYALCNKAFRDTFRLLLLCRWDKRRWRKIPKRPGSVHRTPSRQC
The experiment can be described thus: [3H]Pirenzepine Binding Assay, rat brain membranes.

Experiment [3] addresses T4, SERT (Rattus norvegicus, UniProt P31652).
T4 construct: Membranes from frozen rat midbrain were homogenized; from tissue; host or cells: rat midbrain membranes
The experiment can be described thus: [3H]Citalopram Binding Assay, rat midbrain membranes.

Experiment [4] deals with T5, NET (Rattus norvegicus, UniProt Q9WTR4).
T5 construct: rows headed: NET Ki; NET Ki
The format is binding. Conditions: read-out: NET Ki; Table 2.

Experiment [5] is described as follows: Model For Reducing Effect of Nicotine (nicotine discrimination). The format is in vivo, rat. Conditions: rats, nicotine only control 50%. The source says: Model For Reducing Effect of Nicotine. Food-deprived rats were trained to press one lever for a food pellet after nicotine administration and a second lever after vehicle administration. Pellets of food were delivered intermittently, so that every twentieth response produced food. Using this procedure, the only cue for the rat regarding which lever occasionally pays off with a food pellet, is the subjective effect of the nicotine. When the rats were accurately and reliably identifying the nicotine injections (approximately all of its responses on the lever that occasionally pays off after nicotine or saline), testing began. The rats were pretreated with a compound of Formula III before nicotine injection, and the experiment progressed as described above, except responses on either lever intermittently produced food. A 50% effective nicotine dose was reduced to low levels of effectiveness upon administration of a compound of Formula III.

The nature of experiment [6]: Model For Determining Increase in Attention. The experiment is classed as in vivo, rat. Particulars: rats, five-hole chamber, 40 min session, FIG. 4B. As for the experimental part:
Model For Determining Increase in Attention. Rats were trained during daily sessions in a chamber which contained five holes along one wall. When a light came on behind one of the holes, the rat had 5 sec to respond by putting its nose in the hole. If it did this, a food pellet was dispensed. Lights came on for one second randomly in time. Each tenth “correct” response produced a food pellet. The rat had to continuously monitor (attend to) the lights to perform well. The results were measured and illustrated in FIG. 4A. […] The short diagonal marks on the line indicate the occasions on which food pellets were delivered.
Rats were administered a dose of a compound of Formula III, in which R^1 is methyl and R^2 and R^3 are each fluoro. The same task was applied and the number of correct and incorrect responses was measured. The results are depicted in FIG. 4B.

Experiment [7] in a line: Cocaine Discrimination Assay. Conditions: rats trained to discriminate IP 10 mg/kg cocaine from saline; 80% or higher = full substitution; FIG. 1. The experiment is classed as in vivo, rat.
For experiment [8], the target named is T4, SERT. Conditions: comparative data taken from Agoston et al. 1997; read-out: SERT [3H]citalopram Ki ± SEM; cited from earlier work.
Experiment [9] addresses T1, DAT. Conditions: read-out: DAT [3H]WIN 35,428 Ki ± SEM; comparative data taken from Agoston et al. 1997; cited from earlier work.
The target of experiment [10] is T3, muscarinic M1 receptor. Particulars: comparative data taken from Agoston et al. 1997; read-out: M1 [3H]pirenzepine Ki ± SEM; cited from earlier work.
For experiment [11], the target named is NET (Rattus norvegicus, UniProt Q63380). Conditions: read-out: NET [3H]nisoxetine Ki ± SEM; comparative data taken from Agoston et al. 1997; cited from earlier work.
For experiment [12], the system named is NET. The experiment is classed as binding, rat. Conditions: ratio of respective Ki values; greater than 1 = DAT selective.
The mark [13] stands for this setting: ratio of respective Ki values, greater than 1 = DAT selective.

T4 sequence (P31652 whole entry): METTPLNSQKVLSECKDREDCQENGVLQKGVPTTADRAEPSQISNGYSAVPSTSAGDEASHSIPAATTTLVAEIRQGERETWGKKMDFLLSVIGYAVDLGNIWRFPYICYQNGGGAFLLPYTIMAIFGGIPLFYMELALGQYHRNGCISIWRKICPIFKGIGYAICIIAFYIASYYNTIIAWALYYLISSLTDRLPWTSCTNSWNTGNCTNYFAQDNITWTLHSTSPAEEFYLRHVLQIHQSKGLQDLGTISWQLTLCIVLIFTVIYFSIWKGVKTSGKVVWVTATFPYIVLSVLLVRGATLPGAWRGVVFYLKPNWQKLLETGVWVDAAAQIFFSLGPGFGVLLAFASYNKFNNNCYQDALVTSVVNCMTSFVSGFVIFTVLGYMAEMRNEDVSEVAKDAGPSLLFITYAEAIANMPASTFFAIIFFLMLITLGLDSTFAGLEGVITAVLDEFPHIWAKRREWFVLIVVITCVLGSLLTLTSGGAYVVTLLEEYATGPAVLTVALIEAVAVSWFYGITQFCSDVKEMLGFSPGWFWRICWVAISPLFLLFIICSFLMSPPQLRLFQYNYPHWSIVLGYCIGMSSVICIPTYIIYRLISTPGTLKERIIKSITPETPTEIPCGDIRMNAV
T1 sequence (P23977 whole entry): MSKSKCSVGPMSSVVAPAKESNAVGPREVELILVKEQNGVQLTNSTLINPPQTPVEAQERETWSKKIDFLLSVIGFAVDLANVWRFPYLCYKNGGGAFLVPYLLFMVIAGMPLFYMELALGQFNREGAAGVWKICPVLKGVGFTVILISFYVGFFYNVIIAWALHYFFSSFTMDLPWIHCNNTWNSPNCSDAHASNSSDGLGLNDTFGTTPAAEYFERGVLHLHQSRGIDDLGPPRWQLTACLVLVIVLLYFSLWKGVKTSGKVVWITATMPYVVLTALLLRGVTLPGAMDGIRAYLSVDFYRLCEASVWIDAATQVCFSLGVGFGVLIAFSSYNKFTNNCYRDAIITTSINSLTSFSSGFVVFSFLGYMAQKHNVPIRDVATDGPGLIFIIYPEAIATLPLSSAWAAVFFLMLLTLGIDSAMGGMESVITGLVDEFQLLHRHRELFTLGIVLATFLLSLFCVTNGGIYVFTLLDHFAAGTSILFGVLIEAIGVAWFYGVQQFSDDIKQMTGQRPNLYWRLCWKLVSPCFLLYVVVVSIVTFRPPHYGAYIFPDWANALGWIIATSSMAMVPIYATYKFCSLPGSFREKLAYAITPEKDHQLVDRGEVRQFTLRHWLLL
T2 sequence (P23977 whole entry): as above
Chain of NET (Rattus norvegicus, UniProt Q63380) (Q63380 1-617): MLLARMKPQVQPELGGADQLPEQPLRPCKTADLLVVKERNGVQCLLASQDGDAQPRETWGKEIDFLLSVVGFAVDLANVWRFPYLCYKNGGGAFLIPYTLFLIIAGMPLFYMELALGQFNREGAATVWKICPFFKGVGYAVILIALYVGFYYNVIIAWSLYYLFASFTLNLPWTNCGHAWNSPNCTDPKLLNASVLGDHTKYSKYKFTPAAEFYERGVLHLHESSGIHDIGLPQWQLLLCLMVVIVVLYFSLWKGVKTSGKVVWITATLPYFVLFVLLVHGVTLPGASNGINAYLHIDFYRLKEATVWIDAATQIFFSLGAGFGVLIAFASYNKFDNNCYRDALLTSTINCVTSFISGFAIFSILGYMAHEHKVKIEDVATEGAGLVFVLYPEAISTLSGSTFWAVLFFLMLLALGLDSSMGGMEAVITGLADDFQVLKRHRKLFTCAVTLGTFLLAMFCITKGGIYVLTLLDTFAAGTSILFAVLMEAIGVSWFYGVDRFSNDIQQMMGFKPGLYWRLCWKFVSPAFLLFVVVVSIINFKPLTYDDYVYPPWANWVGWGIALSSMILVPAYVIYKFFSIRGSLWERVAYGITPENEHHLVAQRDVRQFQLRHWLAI

As to `CCOC(=O)[C@@H]1[C@@H](OC(c2ccc(Cl)cc2)c2ccc(Cl)cc2)C[C@H]2CC[C@@H]1N2C` [Compound S-15, S-(+)-2β-Carboethoxy-3α-[bis(4-chlorophenyl)methoxy]tropane], the Ki came to 14.6 ± 0.39 nM at DAT [1], 3060 ± 150 nM at muscarinic M1 receptor [2], 1560 ± 91 nM at SERT [3] and 3350 ± 154 nM on NET [4]. On DA uptake, this compound had an IC50 of 1.52 ± 0.2 nM.
For `COC(=O)[C@@H]1[C@@H](OC(c2ccc(Cl)cc2)c2ccc(Cl)cc2)C[C@H]2CC[C@@H]1N2C` [Compound S-14], the Ki on DAT [1] is 12.6 ± 0.4 nM; at muscarinic M1 receptor [2], 382 ± 37 nM; at SERT [3], 528 ± 39 nM; at NET [4], 2150 ± 325 nM. The same compound displayed an IC50 at DA uptake of 2.46 ± 0.2 nM.
Consider `CN1[C@@H]2CC[C@@H]1CC(OC(c1ccc(F)cc1)c1ccc(F)cc1)C2` (stereo partly drawn) [AHN 1-055], for which the “Effect (of a 50% effective nicotine dose after pretreatment)” value in [5] (dose 1.0 mg/kg) stood at 7.65%. Besides, the “Number of correct responses (attention to brief light stimuli)” value in experiment [6] is given as “far greater than before treatment”. In [7], the “Substitution for cocaine (cocaine-appropriate responding)” value is “did not fully substitute for cocaine”.
For the compound `C=CCN1[C@@H]2CC[C@H]1C[C@@H](OC(c1ccc(F)cc1)c1ccc(F)cc1)C2` [Compound 13], the “Effect (of a 50% effective nicotine dose after pretreatment)” value in [5] (dose 3.0 mg/kg) is recorded as 22.4%. The Ki on SERT [8] is 2850 ± 62.5 nM; on DAT [9], 8.79 ± 0.52 nM; at muscarinic M1 receptor [10], 177 ± 21.1 nM; at NET [11] it was 1570 ± 242 nM. The “Binding selectivity DAT/M1” value at muscarinic M1 receptor [2] (setting [13]) came to 20. The “Binding selectivity DAT/SERT” value at SERT [3] (setting [13]) stood at 324. Also, the “Binding selectivity DAT/NET” value with NET [12] is listed as 178.

As a reminder, the Ki is a measure of affinity in units of concentration, obtained from inhibition or displacement. In general, IC50 refers to the concentration needed to halve the response being measured.
